Source: patent publication US20230414535A1, “PHARMACEUTICAL COMPOSITION COMPRISING UBIQUINONE-5 AND METHOD OF USE THEREOF” (The Trustees of Columbia University in the City of New York, priority 2021, published 2023)

How the values were obtained:
[1] = test system: isolated forebrain mitochondria; assay: Oligomycin-induced state 4 respiration and ΔΨm in isolated forebrain mitochondria; assay type: biochemical; details: for effect on GABA- or Ub5-induced respiration/leak: added after GABA or Ub5, picrotoxin 1 mM, PLP 10 mM
Experimental: Turning to FIGS. 10a and b, oligomycin-induced state 4 was initiated in isolated forebrain mitochondria using succinate. Tracings of O2 consumption (FIG. 10a) with simultaneous ΔΨm measurement (FIG. 10b) are depicted. Numbers (FIG. 10a) are rates of respiration (nmol·mL-1·min-1·mg mitochondrial protein-1). GABA (10 mM) or Ub5 ([…]) were added. Aralar was inhibited with pyridoxal 5′-phosphate (PLP)(10 mM). Picrotoxin (GABAA receptor antagonist (1 mM)) and GABA or Ub5 alone served as controls. Black solid lines are slopes of ΔΨm prior to and after inhibitor. Decrease in respiration rate with concomitant stabilization or rise in ΔΨm indicates inhibition of leak. […] Thus, PLP blocked GABA import via Aralar. […] Aralar is best described as an aspartate-glutamate carrier within mitochondria. Aralar is the solute that exports aspartate from neuronal mitochondria in exchange for glutamate plus a proton. Thus, Aralar causes leak by translocating protons across the inner mitochondrial membrane during solute transport. Aralar causes leak that can degrade ΔΨm. Aralar is a neuronal transporter that sequesters GABA within the mitochondrial matrix. Many anesthetic agents bind to the GABAA receptor and potentiate GABAergic signaling.

[2] = test system: isolated mitochondria; assay: Complex II-dependent state 4 (leak) respiration with simultaneous mitochondrial membrane potential measurement; assay type: biochemical; details: succinate in the presence of oligomycin, FIG. 1
Source text: FIGS. 1a-c are representative tracings of complex II-dependent state 4 respiration (leak respiration) using succinate in the presence of oligomycin are depicted above and tracings of simultaneously measured mitochondrial membrane potential (ΔΨ) are shown below, for (a) propofol, (b) decylubiquinone, and (c) ubiquinone-5;
In FIG. 1, representative tracings of Complex II-dependent state 4 respiration (leak respiration) using succinate in the presence of oligomycin are depicted in the top three curves and tracings of simultaneously measured mitochondrial membrane potential (ΔΨ) are shown in the bottom three curves. The numbers in the tracings above show rates of oxygen consumption (nmol·mL-1·min-1·mg mitochondrial protein-1). Addition of propofol (FIG. 1 a) decylubiquinone (DB) (FIG. 1b) or ubiquinone-5 (FIG. 1c) are indicated. ΔΨ was determined as a function of triphenylphosphonium (TPP+) concentration in the bath. […] This mechanism is highly reminiscent of the effect of the anesthetic, propofol (FIG. 1a), in isolated mitochondria.

[3] = test system: isolated perfused murine hearts; assay: Surface ECG of isolated perfused murine hearts; details: isolated perfused heart
Experimental: In FIGS. 2a and 2b, surface ECGs were recorded continuously for isolated perfused murine hearts that were prepared and stabilized. Hearts were exposed to either decylubiquinone or ubiquione-5. […] Thus, quinone analogs suppressed electrical signaling in the heart in a reversible manner.

NCCCC(=O)O [GABA]
proton leak (respiration and ΔΨm) ([1]; succinate, oligomycin-induced state 4, GABA (10 mM) or Ub5 (100 mM), FIG. 10): induced a slow increase in proton leak

CCCCCCCCCCC1=C(C)C(=O)C(OC)=C(OC)C1=O [decylubiquinone]
proton leak (state 4 respiration) [2]: increased proton leak
mitochondrial membrane potential (ΔΨ) ([2]; determined via TPP+): decline in ΔΨ
ECG upon cessation of exposure and washout ([3]; after washout): sinus rhythm normalized
surface ECG effect during exposure ([3]; during exposure, FIG. 2): rapidly induced bradycardia that persisted throughout the duration of exposure

Cc1ncc(COP(=O)(O)O)c(C=O)c1O [PLP, pyridoxal 5′-phosphate]
effect on ΔΨm after GABA or Ub5 ([1]; PLP 10 mM added after GABA or Ub5): stabilized ΔΨm
effect on ΔΨm with Ub5 ([1]; PLP 10 mM added after Ub5): acutely increased ΔΨm
effect on GABA- or Ub5-induced respiration/leak [1]: normalized respiration to pre-GABA or Ub5 levels

Picrotoxin
effect on GABA- or Ub5-induced respiration/leak [1]: minimal effect
